Assay results from PubChem BioAssay (NCI).
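Test compounds were applied to cells in 96-well plates for 48 hours at 5 doses. TGI denotes the concentration required for complete inhibition of growth.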

What was measured:
Assay in all cases: NCI anticancer screen, dose series, 48 h
[1] = system: 786-0 renal
[2] = system: A498 renal
[3] = system: A549 NSCLC
[4] = system: ACHN renal
[5] = system: BT-549 breast
[6] = system: CAKI-1 renal
[7] = system: COLO 205 colon
[8] = system: DU-145 prostate
[9] = system: EKVX NSCLC
[10] = system: HCC-2998 colon
[11] = system: HCT-116 colon
[12] = system: HCT-15 colon
[13] = system: HOP-62 NSCLC
[14] = system: HOP-92 NSCLC
[15] = system: HS 578T breast
[16] = system: HT29 colon
[17] = system: IGROV1 ovarian
[18] = system: KM12 colon
[19] = system: LOX IMVI melanoma
[20] = system: M14 melanoma
[21] = system: MALME-3M melanoma
[22] = system: MCF7 breast
[23] = system: MDA-MB-231 breast
[24] = system: MDA-MB-435
[25] = system: MDA-N
[26] = system: MOLT-4 leukemia
[27] = system: NCI-H226 lung
[28] = system: NCI-H23 lung
[29] = system: NCI-H460 lung
[30] = system: NCI-H522 lung
[31] = system: NCI/ADR-RES ovarian
[32] = system: OVCAR-3 ovarian
[33] = system: OVCAR-4 ovarian
[34] = system: OVCAR-5 ovarian
[35] = system: PC-3 prostate
[36] = system: RPMI-8226 leukemia
[37] = system: RXF 393 renal
[38] = system: SF-268 CNS
[39] = system: SF-295 CNS
[40] = system: SF-539 CNS
[41] = system: SK-MEL-2 melanoma
[42] = system: SK-MEL-28 melanoma
[43] = system: SK-MEL-5 melanoma
[44] = system: SK-OV-3 ovarian
[45] = system: SN12C renal
[46] = system: SNB-19 CNS
[47] = system: SNB-75 CNS
[48] = system: SR leukemia
[49] = system: SW-620 colon
[50] = system: T-47D breast
[51] = system: TK-10 renal
[52] = system: U251 CNS
[53] = system: UACC-257 melanoma
[54] = system: UACC-62 melanoma
[55] = system: CCRF-CEM leukemia
[56] = system: HL-60(TB) leukemia
[57] = system: K-562 leukemia
[58] = system: OVCAR-8 ovarian
[59] = system: UO-31 renal

CCOC(=O)/C(=C\c1ccc(CO)o1)P(=O)(OCC)OCC
TGI [1]: 45.3 µM | TGI [2]: > 100 µM | TGI [3]: > 100 µM | TGI [4]: > 100 µM | TGI [5]: 45 µM | TGI [6]: > 100 µM | TGI [7]: 51 µM | TGI [8]: > 100 µM | TGI [9]: > 100 µM | TGI [10]: > 100 µM | TGI [11]: 43.8 µM | TGI [12]: 33.2 µM | TGI [13]: > 100 µM | TGI [14]: 53.7 µM | TGI [15]: > 100 µM | TGI [16]: > 100 µM | TGI [17]: > 100 µM | TGI [18]: > 100 µM | TGI [19]: 41.3 µM | TGI [20]: 98 µM | TGI [21]: 50 µM | TGI [22]: > 100 µM | TGI [23]: 93.5 µM | TGI [24]: 86.9 µM | TGI [25]: 47.8 µM | TGI [26]: > 100 µM | TGI [27]: > 100 µM | TGI [28]: 57.8 µM | TGI [29]: 32.6 µM | TGI [30]: 15.4 µM | TGI [31]: > 100 µM | TGI [32]: 59.9 µM | TGI [33]: 35.9 µM | TGI [34]: > 100 µM | TGI [35]: > 100 µM | TGI [36]: 91.4 µM | TGI [37]: 71.1 µM | TGI [38]: 75.8 µM | TGI [39]: > 100 µM | TGI [40]: 40.3 µM | TGI [41]: 92.2 µM | TGI [42]: 82.3 µM | TGI [43]: > 100 µM | TGI [44]: > 100 µM | TGI [45]: 96.2 µM | TGI [46]: > 100 µM | TGI [47]: > 100 µM | TGI [48]: 71.6 µM | TGI [49]: 60.9 µM | TGI [50]: > 100 µM | TGI [51]: > 100 µM | TGI [52]: > 100 µM | TGI [53]: > 100 µM | TGI [54]: > 100 µM

CN(C)Cc1cc(N=Nc2ccc(Cl)c(Cl)c2)ccc1O
TGI [1]: 24.2 µM | TGI [2]: 23.9 µM | TGI [3]: 27.5 µM | TGI [4]: 16.2 µM | TGI [5]: 27 µM | TGI [6]: 25.4 µM | TGI [55]: 20 µM | TGI [7]: 8.26 µM | TGI [8]: 17.6 µM | TGI [9]: 25.6 µM | TGI [10]: 24.4 µM | TGI [11]: 29.8 µM | TGI [12]: 19.1 µM | TGI [56]: 9.44 µM | TGI [13]: 15.3 µM | TGI [14]: 22.3 µM | TGI [15]: 21.9 µM | TGI [16]: 20.4 µM | TGI [17]: 15.9 µM | TGI [57]: 14.1 µM | TGI [18]: 16.5 µM | TGI [19]: 17.9 µM | TGI [20]: 31.9 µM | TGI [21]: 29.6 µM | TGI [22]: 18.1 µM | TGI [23]: 18.2 µM | TGI [24]: 23.9 µM | TGI [25]: 23.5 µM | TGI [26]: 24.4 µM | TGI [27]: 40.7 µM | TGI [28]: 28.1 µM | TGI [29]: 19.8 µM | TGI [30]: 16.2 µM | TGI [31]: 23.5 µM | TGI [32]: 19.2 µM | TGI [33]: 20.8 µM | TGI [58]: 25.5 µM | TGI [35]: 23.8 µM | TGI [36]: 38.8 µM | TGI [37]: 10.7 µM | TGI [38]: 18.7 µM | TGI [39]: 31.9 µM | TGI [40]: 38.5 µM | TGI [42]: 26.5 µM | TGI [43]: 25.2 µM | TGI [45]: 27.8 µM | TGI [46]: 27.6 µM | TGI [47]: 20.3 µM | TGI [48]: 28.6 µM | TGI [49]: 23.1 µM | TGI [50]: 23.2 µM | TGI [51]: 22.9 µM | TGI [52]: 23.6 µM | TGI [53]: 30.5 µM | TGI [54]: 19.4 µM | TGI [59]: 11.9 µM
